Assays:
Assay type in all cases: cell-based
[1] = tested on: human adult skin fibroblasts; assay: iPS cell colony induction, differences between donors, Retronectin or polybrene (Example 13); conditions: virus 10-fold dilution, 25th day of culture, N=2
Method: Regarding gene transfer with a retrovirus vector, a pluripotent stem cell was induced using Retronectin or polybrene, targeting four kinds of human adult skin fibroblasts as in Example 12, followed by comparison.
(§1) According to the same manner as that of Example 1-(1), immobilization of Retronectin on a culture plate was carried out, provided that a non-treatment 12-well culture plate (manufactured by Becton, Dickinson and Company) was used, and each 1 mL of a Retronectin solution was added to each well.
According to the same manner as that of Example 7-(2), gene transfer was carried out (day 0 of culturing), provided that a 12-well plate for culturing a cell (manufactured by Corning) was used in gene transfer with polybrene. A virus solution was added to each well by each 1 mL by diluting 10-fold a solution obtained by mixing equal amounts of three kinds of vectors, with 10F-DMEM.
On the sixth day of culture, according to the same manner as that of Example 5-(4), the gene-introduced cell was seeded on a feeder cell, and culturing was continued.
According to the same manner as that of Example 10-(5), culturing on the feeder cell was carried out until the 25th day of culture.
In addition, the number in the Table indicates an average value of N=2.

human skin fibroblast = assay: AcGFP1 positive cell rate by flow cytometer (Example 19)
Method: As an index showing an existence rate of a cell in which each retrovirus vector together with a gene encoding a nuclear reprogramming factor (iPS cell inducing factor) was inserted, gene transfer of an AcGFP1 gene was carried out, and a pluripotent stem cell (iPS cell) induction efficiency and an AcGFP1 positive cell rate, in a gene transfer method with Retronectin (Retronectin method) and a gene transfer method with polybrene (polybrene method) were compared. In addition, regarding partial condition, quantitation of a copy number of a retrovirus vector inserted into a genome was carried out, and comparison of a copy number and a pluripotent stem cell (iPS cell) induction efficiency was carried out.
According to the same manner as that of Example 1-(1), immobilization of Retronectin on a culture plate was carried out, provided that, for a plate coated with Retronectin, a non-treatment 12-well plate was used, and each 1 mL of a Retronectin solution (25 μg/mL) was added to each well.
The virus solutions prepared in Preparation Example 2 and Preparation Example 3 were mixed at an equal amount in a combination of Table 24, the solution in which the virus solution was diluted 10-fold and 100-fold with 10F-DMEM was prepared regarding the condition A, and the solution in which the virus solution was diluted 10-fold was prepared regarding the condition B, and these were used in gene transfer. Gene transfer was carried out according to the same manner as that of Example 7-(2), provided that 1 mL of PSB was used for washing a plate with PBS in the Retronectin method, the cell number used in infection by the Retronectin method and the polybrene method was 4×10^4 cells/well, and a retrovirus vector solution was 1 mL/well.
According to the same manner as that of Example 10-(4), seeding of the gene-introduced cell on a feeder cell was carried out, provided that an AcGFP1 positive cell rate was measured with a flow cytometer using remaining cells which were not used in seeding on the feeder cell.

[2] = tested on: human adult skin fibroblast; assay: iPS cell colony induction, standing infecting method, Retronectin versus Native fibronectin (Example 21); conditions: virus 10-fold dilution, standing infection, 27th day of culture, N=3
Method: Using a plate coated with Retronectin and a plate coated with Native fibronectin, gene transfer was carried out, and pluripotent stem cell induction was carried out. In addition, as the plate, a plate made in the following Example 21-(1), and a marketed product of a 35 mm petri dish coated with Retronectin in advance (T110A manufactured by TAKARA BIO INC.), and a marketed product of a 35 mm petri dish coated with Native fibronectin in advance (354457 manufactured by FALCON) were used.
According to the same manner as that of Example 1-(1), immobilization of Retronectin on a culture plate was carried out, provided that, as a culturing container, a non-treatment 35 mm petri dish (manufactured by IWAKI CO., LTD.) was used. In addition, petri dishes coated with Retronectin and Native fibronectin in advance which are marketed products (hereinafter, also described as Retronectin dish and fibronectin dish) were not subjected to these immobilization operations.
The virus solutions prepared in Preparation Example 2 were mixed at an equal amount in a combination of Table 27, and diluted 10-fold with 10F-DMEM, each 2 mL was added to the Retronectin-immobilized culturing petri dish prepared in Example 21-(1), or the petri dish coated with Retronectin or Native fibronectin in advance, and this was allowed to stand in a CO2 incubator at 32° C. for 4 to 6 hours. […]

[3] = tested on: mouse embryonic fibroblast; MEF; assay: Efficiency of introducing a retrovirus vector into MEF, AcGFP1 positive cell rate (Example 23); conditions: four days after gene transfer
Method: An efficiency of introducing a gene into MEF using a retrovirus vector was compared between a Retronectin method and a polybrene method.
as §1, with “provided that, as a plate on which Retronectin is coated,” for “provided that”, “12-well” for “12-well culture”, “solution (25 μg/mL)” for “solution”
According to the same manner as that of Example 19-(2) and (3), gene transfer was carried out. The retrovirus vector was prepared according to the same manner as that of Preparation Example 3, and DON-eco-AcGFP1 made using pE-Eco plasmid (manufactured by TAKARA BIO INC.) in place of pE-Ampho plasmid was used. Each of the prepared retrovirus vector as a stock solution, and solutions obtained by diluting the stock solution by each 10-fold to 100000-fold with 10F-DMEM was used for infection. In addition, as a target cell, MEF (manufactured by Millipore) was used.
On the next day of gene transfer, the medium was exchanged with 10F-DMEM.
Four days after a gene transfer operation, the cells were recovered, and an AcGFP1 positive cell rate was measured with a flow cytometer.

In the case of “Retronectin: fragment of fibronectin having a heparin-II binding region (registered trademark, CH-296, TAKARA BIO INC.)”, the “Number of iPS cell colonies” value ([1]; Cell A) is reported as 81.0, the “Number of iPS cell colonies” value ([1]; Cell B) is reported as 6.5 and the “Number of iPS cell colonies” value ([1]; Cell C) is reported as 114.0. The “Number of iPS cell colonies” value ([1]; Cell D) was 44.5, the AcGFP1 positive rate (human skin fibroblast; vector combination Condition A, virus 10-fold dilution) was 82.8% and the AcGFP1 positive rate (human skin fibroblast; vector combination Condition A, virus 100-fold dilution) was 94.1%. For the same substance, the AcGFP1 positive rate (human skin fibroblast; vector combination Condition B, virus 10-fold dilution) was 88%, the “Number of iPS cell colonies” value ([2]; Condition A: DON5-am-OCT4-IR-SOX2, DON5-am-KLF4) was 52.0 and the “Number of iPS cell colonies” value ([2]; Condition B: DON5-am-OCT4-IR-SOX2, DON5-am-LIN28-IR-NANOG, DON5-am-KLF4) was 97.3. It also gave a Positive cell rate ([3]; Virus concentration 0.00001) of 5.9%, a Positive cell rate ([3]; Virus concentration 0.0001) of 15.3% and a Positive cell rate ([3]; Virus concentration 0.001) of 41.3%. For the same substance, the Positive cell rate ([3]; Virus concentration 0.01) was 64.6%, the Positive cell rate ([3]; Virus concentration 0.1) was 80.3% and the Positive cell rate ([3]; Virus concentration 1.0) was 84.1%.
